Source: PubChem BioAssay AID330 (DTP/NCI, 2004)
Values joined by “and” are separate entries in the source; they are usually repeats but may differ in a detail not shown here. Equal values may be shown once. Toxic doses and inconclusive results are not listed.

Tested on: P388 leukemia ip, CD2F1 mice, survival T/C
Test: NCI In Vivo Anticancer Drug Screen. Data for tumor model P388 Leukemia (intraperitoneal) in CD2F1 (CDF1) mice
Conditions: endpoint: median survival time, higher = longer survival
How it was run: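 Mice carrying the transplanted tumor received test compound or vehicle. Survival was recorded in each group, and the value is the treated-group measurement divided by that of the vehicle-treated control group.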

[1] = dose: 50.0 mg/kg/injection, schedule: Q01DX009 (ip), vehicle: saline
[2] = dose: 100.0 mg/kg/injection, schedule: Q01DX009 (ip), vehicle: saline
[3] = dose: 60.0 mg/kg/injection, schedule: Q01DX005 (ip), vehicle: saline with Tween-80
[4] = dose: 50.0 mg/kg/injection, schedule: Q01DX005 (ip), vehicle: Klucel (hydroxypropylcellulose) (HPC)
[5] = dose: 100.0 mg/kg/injection, schedule: Q01DX005 (ip), vehicle: Klucel (hydroxypropylcellulose) (HPC)
[6] = dose: 200.0 mg/kg/injection, schedule: Q01DX005 (ip), vehicle: Klucel (hydroxypropylcellulose) (HPC)
[7] = dose: 50.0 mg/kg/injection, schedule: Q01DX009 (ip), vehicle: Klucel (hydroxypropylcellulose) (HPC)
[8] = dose: 50.0 mg/kg/injection, schedule: Q01DX005 (ip), vehicle: saline with Tween-80
[9] = dose: 100.0 mg/kg/injection, schedule: Q01DX005 (ip), vehicle: saline with Tween-80
[10] = dose: 200.0 mg/kg/injection, schedule: Q01DX005 (ip), vehicle: saline with Tween-80
[11] = dose: 50.0 mg/kg/injection, schedule: Q01DX009 (ip), vehicle: other
[12] = dose: 100.0 mg/kg/injection, schedule: Q01DX009 (ip), vehicle: saline with Tween-80
[13] = dose: 200.0 mg/kg/injection, schedule: Q01DX009 (ip), vehicle: saline with Tween-80
[14] = dose: 12.5 mg/kg/injection, schedule: Q01DX009 (ip), vehicle: saline with Tween-80
[15] = dose: 50.0 mg/kg/injection, schedule: Q01DX009 (ip), vehicle: saline with Tween-80
[16] = dose: 25.0 mg/kg/injection, schedule: Q01DX009 (ip), vehicle: Klucel (hydroxypropylcellulose) (HPC)
[17] = dose: 25.0 mg/kg/injection, schedule: Q01DX005 (ip), vehicle: saline with Tween-80
[18] = dose: 25.0 mg/kg/injection, schedule: Q01DX009 (ip), vehicle: saline with Tween-80

Compound: O=C1c2ccccc2NC(c2cc(Cl)cc(Cl)c2O)N1CCc1ccccn1 (centres undefined)
- T/C [1]: 92 % of control
- T/C [2]: 94 % of control

Compound: CCC[As](CCC)SC1OC(C2COC(C)(C)O2)C2OC(C)(C)OC12 (centres undefined)
- T/C (dose: 12.5 mg/kg/injection, schedule: Q01DX009 (ip), vehicle: distilled water + Tween-80): 100 % of control
- T/C (dose: 25.0 mg/kg/injection, schedule: Q01DX009 (ip), vehicle: distilled water + Tween-80): 110 % of control

Compound: O=C(OCc1ccccc1)n1nnc2ccccc21
- T/C [3]: 113 % of control
- T/C (dose: 120.0 mg/kg/injection, schedule: Q01DX005 (ip), vehicle: saline with Tween-80): 105 % of control
- T/C (dose: 240.0 mg/kg/injection, schedule: Q01DX005 (ip), vehicle: saline with Tween-80): 111 % of control

Compound: CCN(CC)CCOC(=O)Cc1cccc2c(=O)cc(-c3ccc(OC)cc3)oc12
- T/C (dose: 12.5 mg/kg/injection, schedule: Q01DX005 (ip), vehicle: Klucel (hydroxypropylcellulose) (HPC)): 113 % of control
- T/C (dose: 25.0 mg/kg/injection, schedule: Q01DX005 (ip), vehicle: Klucel (hydroxypropylcellulose) (HPC)): 113 % of control
- T/C [4]: 98 % of control
- T/C [5]: 121 % of control

Compound: O=C1c2ccccc2-n2c1nc1ccc([N+](=O)[O-])cc1c2=O
- T/C [4]: 103 % of control
- T/C [5]: 97 % of control
- T/C [6]: 94 % of control
- T/C (dose: 400.0 mg/kg/injection, schedule: Q04DX002 (ip), vehicle: Klucel (hydroxypropylcellulose) (HPC)): 96 % of control

Compound: CCCCCN(CCNc1cc(OC)cc2cccnc12)C(C)CC (centres undefined)
- T/C (dose: 12.5 mg/kg/injection, schedule: Q01DX005 (ip), vehicle: saline): 112 % of control
- T/C (dose: 25.0 mg/kg/injection, schedule: Q01DX005 (ip), vehicle: saline): 103 % of control
- T/C (dose: 50.0 mg/kg/injection, schedule: Q01DX005 (ip), vehicle: saline): 101 % of control and 97 % of control
- T/C (dose: 100.0 mg/kg/injection, schedule: Q01DX005 (ip), vehicle: saline): 100 % of control

Compound: [O-]/[N+](=C\c1ccc(Cl)cc1Cl)c1ccccc1
- T/C [7]: 96 % of control
- T/C (dose: 100.0 mg/kg/injection, schedule: Q01DX009 (ip), vehicle: Klucel (hydroxypropylcellulose) (HPC)): 100 % of control
- T/C (dose: 200.0 mg/kg/injection, schedule: Q01DX009 (ip), vehicle: Klucel (hydroxypropylcellulose) (HPC)): 100 % of control

Compound: O=C1c2ccccc2-c2cc(Br)c(N=Cc3c[nH]c4ccccc34)cc21
- T/C [8]: 105 % of control
- T/C [9]: 95 % of control
- T/C [10]: 89 % of control

Compound: Cn1ccc(=Nc2ccc(NC(=O)c3ccc(N=c4ccn(C)c5ccc([N+](=O)[O-])cc45)cc3)cc2)cc1
- T/C (dose: 3.13 mg/kg/injection, schedule: Q01DX009 (ip), vehicle: other): 160 % of control
- T/C (dose: 6.25 mg/kg/injection, schedule: Q01DX009 (ip), vehicle: other): 188 % of control
- T/C (dose: 12.5 mg/kg/injection, schedule: Q01DX009 (ip), vehicle: other): 182 % of control
- T/C (dose: 25.0 mg/kg/injection, schedule: Q01DX009 (ip), vehicle: other): 179 % of control and 220 % of control
- T/C [11]: 168 % of control
- T/C (dose: 100.0 mg/kg/injection, schedule: Q01DX009 (ip), vehicle: other): 97 % of control

Compound: COc1cc(OC)c(-c2oc3c(OC)c(OC)c(OC)c(OC)c3c(=O)c2OC)cc1OC
- T/C (dose: 15.0 mg/kg/injection, schedule: Q01DX005 (ip), vehicle: Klucel (hydroxypropylcellulose) (HPC)): 94 % of control
- T/C (dose: 30.0 mg/kg/injection, schedule: Q01DX005 (ip), vehicle: Klucel (hydroxypropylcellulose) (HPC)): 102 % of control
- T/C (dose: 60.0 mg/kg/injection, schedule: Q01DX005 (ip), vehicle: Klucel (hydroxypropylcellulose) (HPC)): 92 % of control
- T/C (dose: 120.0 mg/kg/injection, schedule: Q01DX005 (ip), vehicle: Klucel (hydroxypropylcellulose) (HPC)): 90 % of control

Compound: CCOC(=O)C(CNc1ccc(O)cc1)NC(=O)c1ccccc1 (centres undefined)
- T/C [1]: 101 % of control
- T/C [12]: 94 % of control
- T/C [2]: 103 % of control
- T/C [13]: 94 % of control
- T/C (dose: 200.0 mg/kg/injection, schedule: Q01DX009 (ip), vehicle: saline): 102 % of control
- T/C (dose: 400.0 mg/kg/injection, schedule: Q01DX009 (ip), vehicle: saline with Tween-80): 94 % of control
- T/C (dose: 400.0 mg/kg/injection, schedule: Q01DX009 (ip), vehicle: saline): 101 % of control

Compound: Cn1c2nc(=O)n(-c3ccccc3)c(=O)c-2nc2c1CCCC2
- T/C (dose: 3.13 mg/kg/injection, schedule: Q01DX009 (ip), vehicle: saline with Tween-80): 100 % of control
- T/C (dose: 6.25 mg/kg/injection, schedule: Q01DX009 (ip), vehicle: saline with Tween-80): 106 % of control and 109 % of control
- T/C [14]: 106 % of control and 116 % of control
- T/C [15]: 110 % of control
- T/C [12]: 115 % of control
- T/C [13]: 116 % of control

Compound: Clc1ccc2nc(Cl)c3ccccc3c2c1
- T/C (dose: 0.78 mg/kg/injection, schedule: Q01DX009 (ip), vehicle: Klucel (hydroxypropylcellulose) (HPC)): 88 % of control and 93 % of control
- T/C (dose: 1.56 mg/kg/injection, schedule: Q01DX009 (ip), vehicle: Klucel (hydroxypropylcellulose) (HPC)): 87 % of control and 94 % of control
- T/C (dose: 3.13 mg/kg/injection, schedule: Q01DX009 (ip), vehicle: Klucel (hydroxypropylcellulose) (HPC)): 94 % of control
- T/C (dose: 6.25 mg/kg/injection, schedule: Q01DX009 (ip), vehicle: Klucel (hydroxypropylcellulose) (HPC)): 120 % of control and 89 % of control and 95 % of control
- T/C [16]: 89 % of control
- T/C [7]: 87 % of control

Compound: C=C(C[P+](c1ccccc1)(c1ccccc1)c1ccccc1)C(=O)OCC
- T/C (dose: 3.12 mg/kg/injection, schedule: Q01DX001 (ip), vehicle: saline): 111 % of control
- T/C (dose: 6.25 mg/kg/injection, schedule: Q01DX001 (ip), vehicle: saline): 109 % of control
- T/C (dose: 12.5 mg/kg/injection, schedule: Q01DX001 (ip), vehicle: saline): 113 % of control
- T/C (dose: 12.5 mg/kg/injection, schedule: Q01DX001 (ip), vehicle: suspension in saline): 117 % of control

Compound: COCN1C(=O)CN=C(c2ccccc2)c2cc(NO)ccc21
- T/C (dose: 12.5 mg/kg/injection, schedule: Q01DX009 (ip), vehicle: Klucel (hydroxypropylcellulose) (HPC)): 105 % of control
- T/C [16]: 105 % of control
- T/C [7]: 100 % of control and 106 % of control

Compound: OCc1ccc2c(c1)CCC2
- T/C [11]: 100 % of control

Compound: Oc1ccccc1N=Cc1ccc2c(c1)OCO2
- T/C [17]: 103 % of control
- T/C [8]: 110 % of control
- T/C [9]: 104 % of control
- T/C [10]: 110 % of control

Compound: CN1CCC(=C(C#N)C#N)CC1
- T/C [18]: 120 % of control
- T/C [15]: 115 % of control

Compound: CC(C)=C1NC(=O)NC1=O
- T/C [4]: 101 % of control
- T/C [5]: 101 % of control
- T/C [6]: 102 % of control

Compound: CC(C)(C)C1CCC2(CC1)OCC1CCCN12 (centres undefined)
- T/C [17]: 88 % of control
- T/C [8]: 88 % of control
- T/C [9]: 95 % of control

Compound: CCCCC/C=C/C(=O)OC
- T/C (dose: 100.0 mg/kg/injection, schedule: Q04DX002 (ip), vehicle: saline with Tween-80): 100 % of control
- T/C (dose: 200.0 mg/kg/injection, schedule: Q04DX002 (ip), vehicle: saline with Tween-80): 100 % of control
- T/C (dose: 400.0 mg/kg/injection, schedule: Q04DX002 (ip), vehicle: saline with Tween-80): 100 % of control

Compound: CC1(C(Cl)(Cl)Cl)C=CC(=O)C=C1
- T/C [15]: 99 % of control
- T/C [12]: 107 % of control
- T/C [13]: 99 % of control

Compound: CN1C(=O)c2ccccc2CC12c1ccccc1C(=O)N2C (centres undefined)
- T/C (dose: 12.5 mg/kg/injection, schedule: Q01DX005 (ip), vehicle: saline with Tween-80): 94 % of control
- T/C [17]: 90 % of control
- T/C [8]: 108 % of control

Compound: O=C1CSC2=NCCN12
- T/C (dose: 50.0 mg/kg/injection, schedule: Q01DX009 (ip), vehicle: suspension in saline): 101 % of control
- T/C (dose: 100.0 mg/kg/injection, schedule: Q01DX009 (ip), vehicle: suspension in saline): 107 % of control
- T/C (dose: 200.0 mg/kg/injection, schedule: Q01DX009 (ip), vehicle: suspension in saline): 115 % of control

Compound: COc1cc2nc(C)n(C)c(=O)c2cc1OC
- T/C [14]: 95 % of control
- T/C [18]: 116 % of control
- T/C [15]: 101 % of control

Compound: ClCCCSSCCCCl
- T/C (dose: 30.0 mg/kg/injection, schedule: Q01DX005 (ip), vehicle: saline with Tween-80): 107 % of control
- T/C [3]: 110 % of control

Compound: Cc1cc2c(=O)[nH]cnc2n1C1C(O)CCCC1O (centres undefined)
- T/C [4]: 106 % of control
- T/C [5]: 104 % of control
- T/C [6]: 107 % of control
